Results reported in patent publication US12465614B2, “Budesonide 21-phosphate salts and pharmaceutical compositions containing the same” (GENETIC S.P.A., priority 2020, dated 2025).

Experiments:
Format in all cases: in vivo
[1] = test system: OVA-sensitized mice; settings: 1 mg/Kg i.p. before each OVA exposure; female Balb/c; vs OVA group; FIG. 10A
[2] = test system: mice with OVA-induced allergic asthma; assay: BAL fluid cell counts (Experimental Groups II)
Description: Male Balb/c SPF mice (25*2 g, 6-week-old) were purchased from the animal house facilities at the São Paulo School of Medicine (Federal University of São Paulo, Brazil). They were group-housed in a temperature-controlled room at 22° C. with a 12/12-hour light/dark cycle and allowed free access to food and water. The study is in agreement with the Ethical Principles for Animal Research established by the Brazilian College for Animal Experimentation (COBEA). According to the internal laboratory rules, euthanasia is performed if severe distress related to the test agents developed during the experiment. […] The compounds were dissolved in DMSO (Sigma Chemical Co., St. Louis, MO) at concentrations at which the determined dose per animal results from the intraperitoneal administration of 100 μl of solution (1:10 DMSO) and intra-nasal (i.n.) administration of 10 μl/animal (5 μl/nostril) of the solutions. Mice were sensitized with two subcutaneous injections of 0.4 ml of OVA/Al(OH)3, with an interval of 7 days (Sham animals received the Al(OH)3 suspension in PBS with no OVA). Seven days after the second sensitization (i.e., 3rd week), the animals were nebulized twice a week with the 1% OVA solution (Sham and untreated OVA groups were nebulized with PBS) during 20 minutes for the next 2 weeks. Sixty minutes before the challenges (OVA nebulization) and daily during the next 4 weeks, mice were intra-nasally treated (10 μl/animal as 5 μl/nostril) with the respective compounds/vehicle. After Penh evaluation, the mice were anesthetized with inhaled isofluorane (5% v/v in O2) and blood samples were collected from the descending abdominal aorta. The mice were then euthanized by exsanguination (blood samples were collected from each animal for leukocyte cell counting), and bronchoalveolar lavage (BAL) was performed by exposing and cannulating the trachea with a polyethylene tube (1 mm outer diameter) connected to a syringe. The lungs were washed by flushing 300 μL of heparin-containing PBS solution (20 Ul/mL). The retrieved BAL lavage aliquots were obtained, and the same procedure was repeated four additional times. The samples were submitted to centrifugation (1000 g for 10 min) and the cell pellet was resuspended in 200 μL of PBS solution. Total cell counts were determined using a Neubauer chamber, and differential counting was carried out in cytospin (Fanem Mod 2400; São Paulo, Brazil) preparations stained with May-Grünwald dye. Leukocytes were classified based on normal morphological criteria.

[3] = test system: mice with OVA-induced allergic asthma; assay: BAL fluid cell counts, Bud vs Bud-21 P (Experimental Groups III)
Description: Male Balb/c SPF mice (25*2 g, 6-week-old) were purchased from the animal house facilities at the São Paulo School of Medicine (Federal University of São Paulo, Brazil). They were group-housed in a temperature-controlled room at 22° C. with a 12/12-hour light/dark cycle and allowed free access to food and water. The study is in agreement with the Ethical Principles for Animal Research established by the Brazilian College for Animal Experimentation (COBEA). According to the internal laboratory rules, euthanasia is performed if severe distress related to the test agents developed during the experiment.
In Protocol 3, the test compounds budesonide (Bud; MW: 430.53 g/mol) and budesonide 21-phosphate free acid (Bud-21 P; MW: 510.51 g/mol) were administered at equimolar doses of 3, 10 and 30 nmol/animal/day, equivalent to 1.3, 4.3 and 12.9 μg/animal/day of Bud, 1.5, 5.1 and 15.3 μg/animal/day of Bud-21 P, respectively. […]
After Penh evaluation, the mice were anesthetized with inhaled isofluorane (5% v/v in O2) and blood samples were collected from the descending abdominal aorta. […] Total cell counts were determined using a Neubauer chamber, and differential counting was carried out in cytospin (Fanem Mod 2400; São Paulo, Brazil) preparations stained with May-Grünwald dye. […]

SMILES	bronchial hyperreactivity (increased response of isolated bronchi to carbachol) [1]	OVA-induced increase of BAL macrophages ([2]; 3 nmol/animal i.n.)	total leukocytes in BAL fluid ([2]; 3 nmol/animal i.n., vs untreated OVA group)	eosinophils in BAL samples ([2]; i.n., all treatments: FB 0.3, 1.0, 3.0 nmol/animal, F and B 3.0 nmol/animal)	total BAL leukocytes compared with Sham ([3]; 3 nmol/animal/day i.n.)	BAL macrophages compared with Sham ([3]; 3 or 10 nmol/animal/day i.n.)
CCCC1OC2CC3C4CCC5=CC(=O)C=CC5(C)C4C(O)CC3(C)C2(C(=O)COP(=O)(O)O)O1 (stereo not drawn) [B, Budesonide 21-phosphate]	did not significantly affect the increased response of carbachol	abolished the OVA-induced increase of BAL macrophages	significantly reduced	significantly controlled		
CCCC1OC2CC3C4CCC5=CC(=O)C=CC5(C)C4C(O)CC3(C)C2(C(=O)CO)O1 (stereo not drawn) [Bud, 11β,21-dihydroxy-16α,17α-(butylidenebis(oxy))pregna-1,4-diene-3.20-dione]					still significantly higher than that observed in the Sham mice	still significantly higher than those observed in the Sham group
